Earlier results in patent US8124767B2, “Luminescence biotin-transition metal complex conjugate, and method of amplifying signal using the same” (Samsung Electronics Co., Ltd., priority 2008, dated 2012).
Read-outs that look alike come from different tables or passages of the source.

Legend:
avidin = target: T1, avidin (Gallus gallus, UniProt P02701); conditions: HABA, comparison value; read-out: Kd (binding to avidin); cited from earlier work
T1 construct: purchased Aldrich

[1] = excitation 310 nm, 0.02 mM 2-MeTHF, cited from earlier work

T1 sequence (P02701 25-152): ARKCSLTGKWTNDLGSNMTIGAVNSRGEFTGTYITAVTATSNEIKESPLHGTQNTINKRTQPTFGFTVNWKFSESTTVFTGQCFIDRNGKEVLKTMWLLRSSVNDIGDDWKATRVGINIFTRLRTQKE

## O=C(O)c1ccccc1N=Nc1ccc(O)cc1 [HABA, 4,4′-hydroxyazobenzene-2-carboxylic acid]
avidin
  Kd: 6 µM

## Cc1cc(-n2c3ccccc3c3ccccc32)cc(-n2c3ccccc3c3ccccc32)c1 [Probe 5mCP]
[1]; 77 K
  T360 nm, lifetime of the donor peak: 8.2 ns
  T411 nm, lifetime of the donor peak: 7.0 s
[1]; 298 K
  T360 nm, lifetime of the donor peak: 6.6 ns
